This note sets out measurements from patent US10294218B2 (VIROSTATICS SRL, priority 2012, dated 2019).

Each structure is given as a SMILES string. pIC50: −log10 of the molar value. Where a name gives a salt, the structure may show the parent alone. Read-outs that look alike come from different tables or passages of the source.

Series [1] deals with Primary T cells. Description: Cytotoxicity, percentage of viable cells by flow cytometry. The conditions noted are these: viability. The format is cell-based. How it is done: Primary T cells are cultured and treated with different concentrations of the test compound. Viability is analysed by measuring through flow cytometry based techniques the percentage of viable cells, compared to untreated control=100%).
In Tables 2, 3 and 4, ND means Not Determined.

The subject of series [2] is Primary T cells. Description: Antiproliferative activity (AP), mitotic index by flow cytometry. The format is cell-based. The conditions noted are these: read-out: AP50 (Inhibitory concentration 50% for antiproliferative capacity). In general terms: In flow cytometry, cells or beads pass a laser one at a time.
Series [3] concerns laboratory strain of HIV-1. The experiment in a line: Antiviral activity against HIV (AV), p24 in infected activated primary T cells. The settings on record: for pIC50: read-out: AV50 (Inhibitory concentration 50% for antiviral activity). The format is cell-based. The method in brief: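 Activated primary T cells infected with a laboratory HIV-1 strain were cultured with a range of compound concentrations. Replication was measured as p24, expressed as a percentage of untreated control, with AV = 100 − % p24. AV50 is the concentration giving 50% antiviral activity.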

Series [4] deals with human CDK9/CyclinT kinase complex (Homo sapiens (Human), UniProt P50750). The experiment in a line: In vitro CDK9/CyclinT assay (IMAP fluorescent polarization). The format is biochemical. How it is done:
The activity of the compounds described in the present invention can be determined by measuring the phosphorylation of a fluorescently-labeled peptide by human CDK9/CyclinT kinase complex by fluorescent polarization using a commercially available IMAP Screening Express Assay Kit (Molecular devices).
Test compounds were diluted in 100% DMSO to 5 mM stock concentration, then further dilutions were made in H2O or 100% DMSO to desirable concentrations.
Each reaction consisted of 5 nM enzyme: CDK9/CyclinT (Proqinase cat#0371-0345-1), 400 nM TAMRA-Rbtide (synthetic 15-mer peptide derived from human retinoblastoma tumor suppressor protein labeled with TAMRA dye, Genecust Europe), 12 μM ATP (=Kmapp, Sigma-Aldrich) and kinase buffer: 20 mM MOPS pH 7 (Sigma-Aldrich), 1 mM DTT (Sigma-Aldrich), 10 mM MgCl2 (Sigma-Aldrich), 0.01% Tween 20 (Sigma-Aldrich).
For each reaction, 4 or 6 μl containing TAMRA-Rbtide, ATP and kinase buffer were combined with 2 μl diluted compound in H2O or 0.028 μl compound in 100% DMSO. The kinase reaction was started by the addition of 2 μl diluted enzyme. The reaction was allowed to run for 1 hour at room temperature. The reaction was stopped by adding 15 μl IMAP beads (1:400 beads in progressive (100% buffer A) 1× buffer).

The mark [5] stands for this setting: Human immunodeficiency virus 1, T-cell.

Chain of human CDK9/CyclinT kinase complex (P50750 whole entry): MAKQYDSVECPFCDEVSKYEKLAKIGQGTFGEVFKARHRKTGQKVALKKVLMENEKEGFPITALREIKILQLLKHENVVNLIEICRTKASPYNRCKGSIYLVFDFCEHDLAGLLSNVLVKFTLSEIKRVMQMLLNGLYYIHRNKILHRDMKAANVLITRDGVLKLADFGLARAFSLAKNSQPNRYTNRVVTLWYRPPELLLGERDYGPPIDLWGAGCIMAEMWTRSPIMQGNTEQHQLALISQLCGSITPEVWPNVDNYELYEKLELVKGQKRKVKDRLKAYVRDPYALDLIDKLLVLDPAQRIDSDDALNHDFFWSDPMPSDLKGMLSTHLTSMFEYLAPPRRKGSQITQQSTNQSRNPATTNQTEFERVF
Chain of human CDK9/CyclinT kinase complex (O60563 whole entry partner): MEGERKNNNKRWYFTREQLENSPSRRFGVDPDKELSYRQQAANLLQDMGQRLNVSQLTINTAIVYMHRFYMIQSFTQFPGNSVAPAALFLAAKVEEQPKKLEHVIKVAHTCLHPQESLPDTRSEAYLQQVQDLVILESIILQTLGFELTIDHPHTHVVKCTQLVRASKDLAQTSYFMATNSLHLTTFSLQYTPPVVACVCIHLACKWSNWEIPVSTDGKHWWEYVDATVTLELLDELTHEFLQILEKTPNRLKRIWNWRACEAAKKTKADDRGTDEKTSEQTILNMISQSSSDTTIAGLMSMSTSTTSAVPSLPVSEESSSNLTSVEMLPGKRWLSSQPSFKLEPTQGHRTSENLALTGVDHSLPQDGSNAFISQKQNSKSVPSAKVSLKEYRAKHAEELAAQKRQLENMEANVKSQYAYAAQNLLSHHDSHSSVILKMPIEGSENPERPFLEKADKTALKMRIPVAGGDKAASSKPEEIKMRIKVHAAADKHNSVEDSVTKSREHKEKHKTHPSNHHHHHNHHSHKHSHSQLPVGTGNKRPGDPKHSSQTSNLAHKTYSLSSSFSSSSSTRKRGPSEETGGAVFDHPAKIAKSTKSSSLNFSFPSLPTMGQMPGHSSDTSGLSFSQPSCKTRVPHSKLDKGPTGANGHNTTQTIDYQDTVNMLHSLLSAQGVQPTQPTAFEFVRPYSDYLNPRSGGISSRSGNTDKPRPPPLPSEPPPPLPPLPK

For the molecule `COc1ccc(Nc2cc(-c3ccccc3OC)ncn2)cc1CN1C(=O)c2ccccc2C1=O` [Example 3, 2-(2-Methoxy-5-(6-(2-methoxyphenyl)pyrimidin-4-ylamino)benzyl)isoindoline-1,3-dione], the “TD50 (Toxic dose 50%)” value in the series on Primary T cells [1] is >5 µM. In the series on Primary T cells [2] (T-cell), the pIC50 was < 6.00.
Consider `COc1ccccc1-c1cc(Nc2ccc(N(C)C)cc2)ncn1` [Example 5, N^1-(6-(2-methoxyphenyl)pyrimidin-4-yl)-N^4,N^4-dimethylbenzene-1,4-diamine], for which the “TD50 (Toxic dose 50%)” value in the series on Primary T cells [1] was >10 µM. The figures for the pIC50 (in series [3] (setting [5]); with Primary T cells [2] (T-cell)) were 6.52 and 6.82, respectively. For the same molecule, the “antiviral and antiproliferative activity and cytotoxicity profile (in words)” value in series [3] (summary of AV, AP and cytotoxicity assays) is “good antiviral and antiproliferative activity and a good cytotoxicity profile”.
Consider `COc1ccc(Nc2cc(-c3ccccc3OC)ncn2)cc1OCCN1CCOCC1` [Example 8, N-(4-Methoxy-3-(2-morpholinoethoxy)phenyl)-6-(2-methoxyphenyl)pyrimidin-4-amine], for which the “TD50 (Toxic dose 50%)” value with Primary T cells [1] is >1.5 µM. In addition, the pIC50 in series [3] (setting [5]) is 6.40; in the series with Primary T cells [2] (T-cell) it was < 5.82.
For `COc1ccccc1-c1cc(Nc2ccc(Cl)c(CN3C(=O)c4ccccc4C3=O)c2)ncn1` [Example 20, 2-(2-Chloro-5-(6-(2-methoxyphenyl)pyrimidin-4-ylamino)benzyl)isoindoline-1,3-dione], in that order: >0.5 µM, < 5.82 and < 6.30.
The matching figures for `COc1ccc(Nc2cc(-c3ccccc3OC)ncn2)cc1NC(=O)OCC(Cl)(Cl)Cl` [Example 27, 2,2,2-Trichloroethyl 2-methoxy-5-(6-(2-methoxyphenyl)pyrimidin-4-ylamino)phenylcarbamate]: >0.5 µM, < 6.30 and < 6.30.
Take `COc1ccc(Nc2cc(-c3ccccc3OC)ncn2)cc1OCc1ccccc1` [Example 36, N-(3-(Benzyloxy)-4-methoxyphenyl)-6-(2-methoxyphenyl)pyrimidin-4-amine]: the “TD50 (Toxic dose 50%)” value in the series with Primary T cells [1] is >5 µM. In addition, the pIC50 with Primary T cells [2] (T-cell) was < 5.30.
Regarding `CNCc1cc(Nc2cc(-c3ccccc3OC)ncn2)ccc1OC` [Example 37, N-(4-Methoxy-3-((methylamino)methyl)phenyl)-6-(2-methoxyphenyl)pyrimidin-4-amine], the “TD50 (Toxic dose 50%)” value with Primary T cells [1] turned out to be 2 µM. The pIC50 in series [3] (HIV-1 infected activated primary T cells, p24) was < 5.82; in the series on Primary T cells [2] (primary T cells, mitotic index), 5.70.
As for `COc1ccccc1-c1cc(Nc2ccc(N(C)C)c(F)c2)ncn1` [Example 106, 2-Fluoro-N^4-[6-(2-methoxy-phenyl)-pyrimidin-4-yl]-N^1,N^1-dimethyl-benzene-1,4-diamine Hydrochloride], the pIC50 in series [4] is > 6.00.
Still for that read-out and setting: in the case of `COc1ccccc1-c1cc(Nc2ccc(Cl)c(O)c2)ncn1` [Example 107, 2-Chloro-5-[6-(2-methoxy-phenyl)-pyrimidin-4-ylamino]-phenol Hydrochloride] it was > 6.00.
Turning to `COc1ccc(Nc2cc(-c3ccc(F)cc3OC)ncn2)cc1OC(C)=O` [Example 126, Acetic Acid 5-[6-(4-fluoro-2-methoxy-phenyl)-pyrimidin-4-ylamino]-2-methoxy-phenyl Ester], the “TD50 (Toxic dose 50%)” value in the series with Primary T cells [1] was >2 µM. The pIC50 in series [3] (setting [5]) is 7.00.
Regarding `CC[C@H](CO)Nc1nc(NCc2ccccc2)c2ncn(C(C)C)c2n1` [Roscovitine, reference compound], in the series with Primary T cells [1], the “TD50 (Toxic dose 50%)” value worked out at 8 µM. In addition, the “anti-HIV and cytotoxicity profile (in words)” value in series [3] (summary of AV and cytotoxicity assays) is “poor anti-HIV and cytotoxicity profile”.
